# Source: patent US8487003B2, “Treatment of cancer by administration of perfluorooctanoic acid” (CXR Biosciences Limited, priority 2001, dated 2013)
# Columns and labels:
# [1] = tested on: C57BL/6J-+/+ mice; assay: Lean disease-free +/+ mice, oral gavage daily for 14 days; assay type: in vivo, mouse; details: 25 mg/kg/day
# Procedure: (§1) The C57BL/6J-ob/ob mouse is an obese, leptin-deficient animal that is widely accepted as a model of obesity and diabetes. Age-paired, disease-free (lean) animals (C57BL/6J-+/+) were also included in the study to observe the ‘normal’ response.
# (§2) One group of 10 ob/ob mice was also treated with vehicle (water) alone.
# (§3) Twenty-four hours after the last dose the animals were killed by an increasing concentration of carbon dioxide. Blood was collected by cardiac puncture and plasma prepared and stored at −70° C. until analysed. Major tissues were weighed, sampled, flash frozen in liquid nitrogen and stored at −70° C.
# (§4) Plasma was analysed for triglycerides, cholesterol and glucose using kits purchased from Sigma (Poole, Dorset). Concentrations of plasma insulin and leptin were determined using commercially available enzymeimmunoassay-based kits from Amersham Life Sciences and Crystalchem Inc., (Chicago) respectively. All assays were carried out as specified by the manufacturer.
# [2] = tested on: C57BL/6J-ob/ob mice; assay: Obese ob/ob mouse model, oral gavage daily for 14 days; assay type: in vivo
# Procedure: as §1, §2, §3, §4
# [3] = tested on: HT-29 xenograft; assay: HT-29 xenograft model in nude mice; assay type: in vivo, nu/nu mice; details: for lag phase of tumour growth: ip 3 times per week
# Procedure: Athymic nude (nu/nu) mice from ICRF stock (HsdOla:ICRF-nu) were obtained from Clare Hall (Pofters Bar, UK). All animals were female and approximately 9 weeks old. Animals, housed in isolator cages and handled under laminar flow, were divided into one control group and two treatment groups, with 5 female mice per group for both the prophylactic and therapeutic schedules
# HT-29 cells were cultured according to the conditions described in section 2.1.1. Cells were harvested, pooled by centrifugation and resuspended in 5 ml medium to which 5 ml Matrigel (basement membrane matrix) was added. 100 μl of cell suspension was injected subcutaneously into each flank of the mice (1.75×10^6 cells per flank).
# The volume of the dosing solution was 10 ml/kg bodyweight. Control animals received an equivalent volume of water.
# Animal bodyweights were recorded throughout the study. Tumour growth was measured 3 times per week using digital calipers and the volume was calculated using the formula:
# Where d1=mean length (n=2) and d2=mean width (n=2). (NB, n=4 if tumour was an irregular shape).
# The maximum permitted tumour volume, according to the terms of the Home Office license, was 1.44 cm^3. Results were expressed graphically for each time point as mean tumour volumes. Tumour weights were recorded at the end of the study, and tumour samples were either snap frozen in liquid nitrogen or fixed in formal saline for further analysis.
# [4] = tested on: GK/Mol rats; assay: Diabetic GK/Mol rat model, oral gavage daily for 14 days; assay type: in vivo
# Procedure: (§5) The GK/Mol rat is a non-obese, diabetic animal that is widely accepted as a model of Type II diabetes. In order to measure the ‘normal’ response, non-diabetic Wistar rats were also used in the study.
# (§6) One group of 10 GK/Mol rats was also treated with vehicle (water) alone.
# as §3
# (§7) Plasma was analysed for, triglycerides, cholesterol, glucose, insulin and leptin as described in section 1.1.1.
# [5] = tested on: male Fischer 344 rats; assay: APFO in diet of male Fischer 344 rats for up to one year; assay type: in vivo, rat; details: 300 ppm in diet
# Procedure: Body weights were initially determined daily and then weekly. Food consumption was determined weekly. Clinical observations were made daily.
# Rats were sacrificed at 1, 2, 7, 14, 28, 90, 182 and 365 days. There were 8 rats per group. At sacrifice blood was sampled by cardiac puncture and submitted for clinical chemistry.
# [6] = tested on: Wistar rats; assay: Non-diabetic Wistar rats, oral gavage daily for 14 days; assay type: in vivo, rat
# Procedure: as §5, §6, §3, §7
# [7] = target: T1, mouse PPAR alpha (Mus musculus, UniProt P23204); assay: Mouse PPAR alpha transactivation assay in COS-1 cells; assay type: cell-based; details: luciferase reporter, 16 hours, read-out: EC50, activation of mouse PPAR alpha
# T1 construct: expressed in transfected cells; host or cells: COS-1 cells
# T1 sequence (P23204 1-468): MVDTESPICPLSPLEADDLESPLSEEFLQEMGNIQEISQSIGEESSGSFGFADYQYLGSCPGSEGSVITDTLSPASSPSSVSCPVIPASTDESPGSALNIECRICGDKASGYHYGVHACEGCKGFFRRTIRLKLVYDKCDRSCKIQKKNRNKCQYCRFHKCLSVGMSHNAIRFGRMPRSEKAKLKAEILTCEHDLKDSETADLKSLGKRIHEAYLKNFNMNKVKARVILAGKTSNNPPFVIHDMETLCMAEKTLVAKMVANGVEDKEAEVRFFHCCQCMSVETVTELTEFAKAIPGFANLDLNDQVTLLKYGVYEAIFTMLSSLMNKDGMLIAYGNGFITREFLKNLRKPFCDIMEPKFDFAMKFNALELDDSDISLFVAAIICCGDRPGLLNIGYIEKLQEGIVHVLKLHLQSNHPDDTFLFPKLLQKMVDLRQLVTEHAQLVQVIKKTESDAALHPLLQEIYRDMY
# [8] = tested on: HT-29 cells; assay: In vitro cytotoxicity (MTT), HT-29; assay type: cell-based, human; details: HT-29, 4 hours exposure
# Procedure: (§8) HT-29 cells (human colon tumour-derived), MCF7 cells (human breast cancer-derived) and HepG2 cells (human liver cancer-derived) were cultured in Dulbecco's Modified Eagles Medium (DMEM) supplemented with 10% heat-inactivated foetal calf serum, 2 mM L-glutamine, penicillin (50 IU/ml), streptomycin (50 μg/ml) and 1% non-essential amino acids. Cells were harvested by trypsinisation and diluted to 5×10^4 cells/ml, and 200 μl of cell suspension was plated into each well of a 96 well plate and allowed to attach overnight at 37° C. with 5% CO2. […] 20 μl of a 5 mg/1 m MTT solution was added to each well and the cells were incubated for 4 hours at 37° C. The medium was removed and 200 μl DMSO was added to dissolve formazan crystals. Plates were read at 570 nm and background at 690 nm was subtracted.
# [9] = tested on: MCF7 cells; assay: In vitro cytotoxicity (MTT), MCF7; assay type: cell-based, human; details: MCF7, 4 hours exposure
# Procedure: as §8
# [10] = tested on: HepG2 cells; assay: In vitro cytotoxicity (MTT), HepG2; assay type: cell-based, human; details: HepG2, 4 hours exposure
# Procedure: as §8
structure (smiles),measurement,setting,value
"N.O=C(O)C(F)(F)C(F)(F)C(F)(F)C(F)(F)C(F)(F)C(F)(F)C(F)(F)F [APFO, ammonium perfluorooctanoate]",epididymal fat pad weight,[1],decreased
same,overall food consumption lower than +/+ controls,[1],31%
same,"plasma glucose, % of control values",[1],55%
same,plasma insulin concentration,[1],marked reduction
same,plasma leptin concentration decreased,[1],"to, or below the level of quantitation"
same,"plasma triglycerides, % of control values",[1],35%
same,reduction in plasma cholesterol concentration,[1],~30%
same,bodyweight loss as percentage of initial bodyweight,[1]; 14 days,26%
same,other adverse clinical observations,"[2]; 5, 15, 25 mg/kg/day, 14 days",No other adverse clinical observations
same,reduction in plasma insulin concentration,"[2]; all treated ob/ob mice (5, 15, 25 mg/kg/day)",greater than 90%
same,plasma triglyceride concentration,"[2]; ob/ob, 5 mg/kg/day",no effect
same,reduction of plasma glucose,"[2]; ob/ob, 5 mg/kg/day",approximately 50%
same,bodyweight,"[2]; ob/ob, 5 mg/kg/day, 14 days",unaffected
same,bodyweight loss over the study period,"[2]; ob/ob, 15 mg/kg/day, 14 days",20%
same,reduction in plasma cholesterol concentration,"[2]; ob/ob, 25 mg/kg/day",~30%
same,bodyweight loss as percentage of initial bodyweight,"[2]; ob/ob, 25 mg/kg/day, 14 days",33%
same,"plasma triglyceride, % of control values","[2]; ob/ob, 15 or 25 mg/kg/day",40%
same,"plasma glucose, % of control values","[2]; ob/ob, 15 or 25 mg/kg/day, dose-related",approximately 20%
same,epididymal fat pad weight,"[2]; ob/ob, dose-related",decreased
same,food consumption lower than control mice,"[2]; ob/ob, high dose 25 mg/kg/day",76%
same,food consumption lower than control mice,"[2]; ob/ob, intermediate dose 15 mg/kg/day",53%
same,reduction in plasma cholesterol concentration,"[2]; ob/ob, low and mid dose levels (5, 15 mg/kg/day)",not evident
same,food consumption lower than control mice,"[2]; ob/ob, low dose 5 mg/kg/day",17%
same,animal body weight versus control,"[3]; prophylactic and therapeutic groups, 15 and 25 mg/kg ip",no significant difference
same,macroscopic appearance of tumours,"[3]; prophylactic group, control tumours solid",fluid-filled
same,tumour volume course,"[3]; prophylactic, 15 mg/kg ip",continued to increase
same,tumour weight smaller than in control animals,"[3]; prophylactic, 15 mg/kg ip",22%
same,time after which tumour growth reached a plateau,"[3]; prophylactic, 25 mg/kg ip",26 days
same,tumour weight smaller than in control animals,"[3]; prophylactic, 25 mg/kg ip",58%
same,lag phase of tumour growth,"[3]; prophylactic, control 15 days",22 days
same,tumour weight smaller than controls,"[3]; therapeutic, 15 mg/kg ip",45%
same,tumour weight smaller than controls,"[3]; therapeutic, 25 mg/kg ip",37%
same,plateau of tumour growth,"[3]; therapeutic, highest dose group 25 mg/kg, study incomplete",No plateau was reached
same,lag phase of tumour growth,"[3]; therapeutic, control 17 days",26 days
same,plasma leptin concentration,[4]; GK/Mol rats,no differences
same,"plasma glucose, % of control values","[4]; GK/Mol, 30 mg/kg/day",about 85%
same,"total food consumption, % of control values","[4]; GK/Mol, 3, 10, 30 mg/kg, not related to dose",86-98%
same,"plasma insulin, % of control values","[4]; GK/Mol, dose-dependent reduction reaching this value",about 10%
same,"body weight gain, % of control values","[4]; GK/Mol, high dose 30 mg/kg",44%
same,"body weight gain, % of control values","[4]; GK/Mol, low dose 3 mg/kg",90%
same,"body weight gain, % of control values","[4]; GK/Mol, mid dose 10 mg/kg",71%
same,adverse clinical symptoms or changes in activity,[5],not accompanied by any adverse clinical symptoms
same,bodyweight gain,[5],marked reductions
same,plasma triglycerides,[5]; 7 days and beyond,decreased
same,"food consumption per rat, % of control values",[5]; after first week,80-90%
same,plasma cholesterol concentration,[5]; all time points (1-365 days),decreased
same,plasma glucose concentration,[5]; all time points (1-365 days),decreased
same,plasma insulin concentration,[5]; all time points (1-365 days),decreased
same,decrease of food consumed per unit bodyweight,[5]; first week,approximately 30%
same,"food consumption per rat, % of control consumption",[5]; first week of treatment,approximately 50%
same,body weights lower than concurrent controls,[5]; up to one year,25-30%
same,bodyweight gain,[6]; 30 mg/kg,no effect
same,food consumption versus controls,[6]; 30 mg/kg,no difference
same,"plasma cholesterol, % of control values",[6]; 30 mg/kg,73%
same,"plasma insulin, % of control values",[6]; 30 mg/kg,about 10%
same,group mean plasma leptin lower than controls by,[6]; 30 mg/kg/day,approximately 40%
same,EC50,[7],102 µM
same,concentration eliciting a cytotoxic effect,[8],exceeding 500 μM
same,concentration eliciting a cytotoxic effect,[9],exceeding 500 μM
same,concentration eliciting a cytotoxic effect,[10],exceeding 500 μM
